Laboratory results from patent US20260198495A1, “BINARY INSECTICIDE COMPOSITION AND USE THEREOF” (SHENYANG SINOCHEM AGROCHEMICALS R & D CO., LTD., priority 2022, published 2026).
Values after ≈ are worked out from the molar mass of the structure shown.

Experiments:
Assay type in all cases: in vivo
[1] = tested on: adult Bemisia tabaci (Gennadius); assay: whole plant or invertebrate; conditions: in Phaseolus vulgaris, 72 h
Procedure: (§1) Preparation of the pesticide solution: according to different test requirements, the test samples were accurately weighed respectively with an electronic analytical balance. The technical pesticides were dissolved in acetone, and then diluted with 0.1% Tween 80 water into a series of pesticide solutions with a certain concentration gradient according to the experimental design dosage.
In addition, a blank control was set up. The number of dead and live insects was investigated 72 hours later.

[2] = tested on: adult Tetranychus urticae Koch; assay: Joint toxicity of I-72 + cyetpyrafen, Example 85, Table 85; conditions: Tetranychus urticae; A = compound I72, B = cyetpyrafen; potted-seedling spraying; 72 hours; read-out: LC50
Procedure: Test target: adult Tetranychus urticae Koch, a sensitive strain reared indoors.
as §1
Experimental method: the activity of the mixture against the adult Tetranychus urticae Koch was determined by adopting the potted-seedling spraying method. First, the adult Tetranychus urticae Koch of uniform size were transferred onto the leaves of kidney bean seedlings at the stage when the first pair of true leaves was fully expanded. After the adult mites had stabilized, the base number was counted. Then, the uniform spraying was performed with the pesticide solution in the order from low to high dose according to the experimental design, with 1.5 mL for each seedling and 3 replicates for each treatment. […]
(§2) The treated test materials were placed in an observation room, and the temperature, humidity and illumination of the observation room could be adjusted as needed. […] Then, the co-toxicity coefficient of each ratio was calculated using the Sun Y-P method to evaluate the mixing effect (the same as in Example 1).

[3] = tested on: 3rd-instar larvae of Ostrinia furnacalis Guenee; assay: Synergism screening (Bliss) of I-72 + ecdysteroid and juvenile hormone insecticides, Example 51, Table 51; conditions: Ostrinia furnacalis; single pesticide, 2 mg/L; 72 hours; read-out: Measured mortality rate
Procedure: Test target: 3rd-instar larvae of Ostrinia furnacalis Guenee.
as §1
(§3) Experimental method: first, tender corn stems were selected and dipped in the prepared pesticide solution for 10 s in the order from low dosage to high dosage according to the experimental design. After natural air-drying in the shade, they were placed in a 9-cm-diameter Petri dish with filter paper, and uniform and healthy test insects were introduced, with 10 insects for each treatment and 3 replicates for each treatment. In addition, a blank control (CK) was set up.
The treated test materials were placed in an observation room, and the temperature, humidity and illumination of the observation room could be adjusted as needed. The number of dead and alive insects was investigated 72 hours later, and the corrected mortality rate was calculated using the Abbott's formula.
The synergism of the mixture was evaluated by adopting the Bliss method, as in Example 5.

[4] = tested on: adult Phyllotreta vittuta Fabr.; assay: Joint toxicity of I-72 + acetamiprid, Example 65, Table 65; conditions: A = compound I-72, B = acetamiprid; potted cabbage seedling spraying; 72 hours; read-out: LC50
Procedure: Test target: adult Phyllotreta vittuta Fabr.
as §1
Experimental method: first, uniform and consistent potted cabbage seedlings were selected. Then, uniform spraying was performed with the pesticide solution in the order from low dosage to high dosage according to the experimental design. After air-drying in the shade, adult flea beetles were transferred onto the treated cabbage seedlings, and then glass covers were put on them, with about 30-40 adult flea beetles on each seedling and 3 replicates for each treatment. In addition, a blank control was set up.
The treated test materials were placed in an observation room, and the temperature, humidity and illumination of the observation room could be adjusted as needed. The number of dead and live insects was investigated 72 hours later.

[5] = tested on: Myzus persicae (Sulzer) nymphs; assay: whole plant or invertebrate; conditions: A = compound I-72, B = clothianidin, cabbage leaf spraying, 48 hours, read-out: LC50
Procedure: Test target: Myzus persicae (Sulzer) nymphs, a sensitive strain reared indoors.
as §1
Experimental method: first, cabbage leaves with uniform and consistent Myzus persicae (Sulzer) were selected, with about 30-40 insects on each leaf. Then, they were evenly sprayed with the pesticide solution in the order from low dosage to high dosage according to the experimental design, with 1.5 mL of the solution for each leaf and 3 replicates for each treatment. In addition, a blank control was set up.
The treated test materials were placed in an observation room, and the temperature, humidity and illumination of the observation room could be adjusted as needed. The number of dead and live insects was investigated 48 hours later.

[6] = tested on: 2nd-instar larvae of Mythimna separata; assay: Joint toxicity of I-72 + beta-cyfluthrin, Example 41, Table 41; conditions: Mythimna separata, foliar; A = compound I-72, B = beta-cyfluthrin; corn leaf dipping; 72 hours; read-out: LC50
Procedure: Test target: 2nd-instar larvae of Mythimna separata.
as §1
as §3, with “first,” for “first, tender”, “leaves” for “stems”, “control” for “control (CK)”
as §2, with “needed. The number of dead and live insects was investigated 72 hours later.” for “needed.”

Rhizoctonia solani = assay: Control efficacy against Rhizoctonia solani, rice seedling potting method, Example 89, Table 89; conditions: rice seedlings, foliar spraying
Procedure: Control efficacy of the composition containing the compound I-72 against Rhizoctonia solani
Test target: Rhizoctonia solani, a sensitive strain cultured indoors.
The trial adopted the seedling potting method. Test crop: rice. Experimental method: the rice seedlings were cultured to the 2-leaf stage in the greenhouse of the experimental materials. Foliar spraying treatment was performed on the crop sprayer according to the designed dosage. The test target strain was inoculated 24 hours after the pesticide treatment. All the inoculated experimental materials were cultured in a phytotron. […] The disease grading and the calculation method of the control efficacy both referred to the agricultural industry standards of the People's Republic of China.

## CN(C(=O)c1ccc2c(c1)OC(F)(F)O2)c1cccc(C(=O)Nc2c(Br)cc(C(F)(C(F)(F)F)C(F)(F)F)cc2OC(F)F)c1F [Compound I-72]
[1]
  LC50: 2.91 µg/mL (≈ 3.92 µM)
[2]
  LC50: 40.4 µg/mL
[3]
  mortality at 2 µg/mL: 75.9%
[4]
  LC50: 1.14 µg/mL
[5]
  LC50: 8.05 µg/mL (≈ 10.9 µM)
[6]
  LC50: 0.029 µg/mL
Rhizoctonia solani; 5 mg/L, A = compound I-72, B = coumoxystrobin
  Control efficacy: 0%
Rhizoctonia solani; 5 mg/L, A = compound I-72, B = pyraoxystrobin
  Control efficacy: 0%
Rhizoctonia solani; 10 mg/L, A = compound I-72, B = coumoxystrobin
  Control efficacy: 0%
Rhizoctonia solani; 10 mg/L, A = compound I-72, B = pyraoxystrobin
  Control efficacy: 0%
Rhizoctonia solani; 20 mg/L, A = compound I-72, B = coumoxystrobin
  Control efficacy: 0%
Rhizoctonia solani; 20 mg/L, A = compound I-72, B = pyraoxystrobin
  Control efficacy: 0%
